Reference: patent US6342503B1, “1N-alkyl-n-arylpyrimidinamines and derivatives thereof” (DuPont Pharmaceuticals Company, priority 1993, dated 2002)
Where a name gives a salt, the structure may show the parent alone.

How the values were obtained:
CRF receptor = biological target: T1, CRF receptor (Rattus norvegicus, UniProt P35353); experiment: In vitro CRF receptor binding assay (competition with [125I] ovine CRF, rat cortex membranes); conditions: read-out: Inhibition Ki
T1 construct: 100 μl of membrane suspension as prepared above to give a total reaction volume of 300 μl; from tissue; host or cells: rat cerebral cortex membrane homogenate
T1 sequence (P35353 24-415): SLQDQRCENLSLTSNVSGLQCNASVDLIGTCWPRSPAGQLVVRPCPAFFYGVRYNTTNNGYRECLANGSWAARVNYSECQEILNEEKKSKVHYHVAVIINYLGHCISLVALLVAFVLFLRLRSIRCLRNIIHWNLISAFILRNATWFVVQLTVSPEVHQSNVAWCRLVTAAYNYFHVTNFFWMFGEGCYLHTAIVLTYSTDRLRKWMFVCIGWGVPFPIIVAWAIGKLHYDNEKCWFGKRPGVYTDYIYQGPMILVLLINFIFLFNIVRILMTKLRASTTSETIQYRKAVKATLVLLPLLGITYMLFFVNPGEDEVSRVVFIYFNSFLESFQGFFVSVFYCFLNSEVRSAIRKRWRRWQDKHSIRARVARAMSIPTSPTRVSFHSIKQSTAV
Experimental: In vitro Receptor Binding Assay
Tissue Preparation: Male Sprague Dawley rats (180-200 g) were sacrificed by decapitation and the cortex was dissected on ice, frozen whole in liquid nitrogen and stored at −70° C. until use. On the day of assay, frozen tissue was weighed and homogenized in 20 volumes of ice cold buffer containing 50 mM Tris, 10 mM MgCl2, 2 mM EGTA, pH 7.0 at 22° C. using a Polytron (Brinkmann Instruments, Westbury, N.Y.; setting 6) for 20 s. The homogenate was centrifuged at 48,000× g for 10 min at 4° C. The supernatant was discarded, and the pellet was re-homogenized in the same volume of buffer and centrifuged at 48,000× g for 10 min at 4° C. The resulting pellet was resuspended in the above buffer to a final concentration of 20-40 mg original wet weight/mL and used in the assays described below.
CRF Receptor Binding: Receptor binding assays were carried out essentially as described by E. B. De Souza, J. Neurosci. […]
All assays were carried out at equilibrium for 2 h at 22° C. as described by E. B. De Souza, J. Neurosci. […] The reaction was terminated by centrifugation of the tubes in a Beckman microfuge for 5 min at 12,000× g. Aliquots of the supernatant were collected to determine the “free” radioligand concentration. The remaining supernatant was aspirated and the pellets washed gently with ice-cold PBS plus 0.01% Triton X-100; centrifuged again and monitored for bound radioactivity as described above. […] This program has the distinct advantage of fitting the raw experimental data on an untransformed coordinate system where errors are most likely to be normally distributed and uncorrelated with the independent variable. […] The parameters for the affinity constants (KD) and receptor densities (Bmax) are also provided along with statistics on the general “fit” of the estimated parameters to the raw data.
Competition Curve Analysis
The resulting pellets were surface washed twice by centrifugation with 1 mL of ice-cold phosphate buffered saline and 0.01% Triton X-100; the supernatants discarded and the pellets monitored for radioactivity at approximately 80% efficiency. The level of non-specific binding was defined in the presence of […] unlabeled rat/humanCRF (r/hCRF). Data from competition curves were analyzed by the program LIGAND. […] Routinely, the data were analyzed using a one- and two-site model comparing the “goodness of fit” between the models in order to accurately determine the Ki. Statistical analyses provided by LIGAND allowed the determination of whether a single-site or multiple-site model should be used.
In Table 17; the Ki values were determined using the assay conditions described above.

SMILES	melting point	Ki (CRF receptor)
CCN(c1nc(C)cc(C)n1)c1c(O)cc(OC)cc1Br [compound 230, N-(2-Bromo-6-hydroxy-4-methoxyphenyl)-N-ethyl-4,6-dimethyl-2-pyrimidinamine]	157 to 160 °C	< 0.5 µM
Cc1cc(C)c2c(C#N)cn(-c3ccc(C(C)C)cc3Br)c2n1 [Example 254]	105.8 °C	< 0.5 µM
CCN(c1nc(C)cc(C)n1)c1ccc(OC)cc1OC [compound 7]	120 to 121 °C	< 0.5 µM
CCN(c1nc(C)cc(C)n1)c1cc(Br)c(OC)cc1OC [compound 253, N-(3-Bromo-4,6-dimethoxyphenyl)-N-ethyl-4,6-dimethyl-2-pyrimidinamine]	143 to 145 °C	0.501 to 2 µM
CCN(c1nc(C)cc(C)n1)c1ccccc1Br [compound 5]	94 to 95 °C	0.501 to 2 µM
CCN(c1nc(C)cc(C)n1)c1c(OC)cc(OC)cc1OC [compound 15]	115 to 116 °C	< 0.5 µM
CCSc1cc(C(C)C)ccc1N(CC)c1nc(C)cc(C)n1 (as salt: hydrochloride) [compound 175, N-(2-ethylthio-4-(1-methylethyl)phenyl)-N-ethyl-4,6dimethyl-2-pyrimidinamine]	128 to 130 °C	–
CCN(c1nc(C)cc(C)n1)c1ccc(OC)cc1SC [compound 185, N-(4-methoxy-2-methylthiophenyl)-N-ethyl-4,6-dimethyl-2-pyrimidinamine]	128 to 130 °C	< 0.5 µM
COc1cc(Br)c(Nc2nc(C)cc(C)n2)c(Br)c1 [compound 223]	175 to 177 °C	0.501 to 2 µM
Cc1cc(Cl)c2c(C#N)cn(-c3ccc(C(C)C)cc3Br)c2n1 [Synth. Ex. 74, 1-(2-Bromo-4-isopropylphenyl)-4-chloro-3-cyano-6-methyl-7-azaindole]	123.3 °C	–
Cc1cc(C)nc(N(C)c2ccc(C(C)(C)C)cc2Br)n1 (as salt: hydrochloride) [compound 11]	193 to 195 °C	–
Cc1cc(C)nc(N(C)c2ccccc2I)n1 (as salt: hydrochloride) [compound 53]	164 to 166 °C	–
CCCCc1ccc(N(CC)c2nc(C)cc(C)n2)c(Br)c1 (as salt: hydrochloride) [compound 19]	124 to 126 °C	–
CCN(c1nc(C)cc(C)n1)c1ccc(C(C)C)cc1[S+](C)[O-] (stereo not shown) [compound 169, N-(2-methylsulfinyl-4-(1-methylethyl)phenyl)-N-ethyl-4,6-dimethyl-2-pyrimidinamine]	144 to 146 °C	–
COc1ccc(N(C)c2nc(C)cc(C)n2)c(OC)c1 (as salt: hydrochloride) [compound 2]	112 to 113 °C	–
CCc1ccc(N(C)c2nc(C)cc(C)n2)c(Br)c1 (as salt: hydrochloride) [compound 9, N-(2-bromo-4-ethylphenyl)-N-methyl-4,6-dimethyl-2-pypimidinamine]	126 to 127 °C	–
CCN(c1cc(OC)nc(OC)n1)c1ccc(C(C)C)cc1Br (as salt: hydrochloride) [compound 130]	104 to 106 °C	–
CCN(c1nc(C)cc(OC[C@@H]2CCCN2C)n1)c1ccc(C(C)C)cc1SC (as salt: hydrochloride) [compound 177, N-(2-methylthio4-(1-methylethyl)phenyl)-N-ethyl-4(S)-(N-methyl-2′-pyrrolidinomethoxy)-6-methyl-2-pyrimidinamine]	101 to 103 °C	–
CCN(c1nc(C)cc(C)n1)c1ccc(C(C)C)cc1SC (as salt: hydrochloride) [compound 170, N-(2-methylthio-4-(1-methylethyl)phenyl)-N-ethyl-4,6dimethyl-2-pyrimidinamine]	141 to 142 °C	–
Cc1cc(C)nc(N(C)c2ccc(I)cc2)n1 (as salt: hydrochloride) [compound 52]	175 to 177 °C	–
CCCCc1ccc(N(CC)c2nc(CC)cc(CC)n2)c(Br)c1 (as salt: hydrochloride) [compound 24]	116 to 118 °C	–
Cc1cc(C)nc(N2CCCSc3cc(C(C)C)ccc32)n1 (as salt: hydrochloride) [compound 173]	157 to 159 °C	–
Cc1ccc(N(C)c2nc(C)cc(C)n2)c(Br)c1 (as salt: hydrochloride) [compound 1, N-(2-bromo-4-methylphenyl)-N-methyl-4,6-dimethyl-2-pymidinamine]	120 to 121 °C	–
CCc1ccc(N(CC)c2nc(C)cc(C)n2)c(SC)c1 (as salt: hydrochloride) [compound 182, N-(4-ethyl-2-methylthiophenyl)-N-ethyl-4,6-dimethyl-2-pyrimidinamine]	140 to 141 °C	–
C=CCN(c1nc(C)cc(C)n1)c1ccccc1Br (as salt: hydrochloride) [compound 3]	127 to 129 °C	–

Other lines, results leading:

melting point	Ki (CRF receptor)	SMILES
125 to 127 °C	–	CCN(c1nc(C)cc(CN2CCN(c3ncccn3)CC2)n1)c1ccc(C(C)C)cc1Br (as salt: HCl) [compound 281]
107 to 108 °C	0.501 to 2 µM	CCN(c1nc(C)cc(C(=O)N2CCCCC2)n1)c1ccc(C(C)C)cc1Br [compound 60]
89 to 90 °C	–	CCN(c1nc(C)nc(OCc2ccccc2)n1)c1ccc(C(C)C)cc1Br (as salt: hydrochloride) [compound 242, N-[2-bromo-4(1-methylethyl)phenyl]-N-ethyl-4-methyl-6-benzyloxy-1,3,5 triazin-2-amine]
145 to 147 °C	–	CCN(c1nccc(C)n1)c1ccc(C(C)C)cc1Br (as salt: hydrochloride) [compound 49, N-(2-Bromo-4-(1-methylethyl)phenyl)-N-ethyl-4-methyl-2-pymidinamine]
117 to 121 °C	–	CCN(c1nc(C)cc(NN)n1)c1ccc(C(C)C)cc1Br (as salt: hydrochloride) [compound 146]
59 to 63 °C	–	CCN(c1nc(C)nc(N2CCOCC2)n1)c1ccc(C(C)C)cc1Br (as salt: hydrochloride) [compound 134, N-[2-bromo-4-(1-methylethyl)phenyl]-N-ethyl-4-methyl-6-(4-morpholinyl)-1,3,5-triazin-2-amine]
151 to 153 °C	–	CCN(c1nc(C)cc(C)n1)c1ccc(C(C)C)cc1Br (as salt: hydrochloride) [compound 21, N-(2-bromo-4-(1-methylethyl)phenyl)-N-ethyl-4,6dimethyl-2-pyrimidinamine]
146 to 148 °C	–	Cc1cc(C)nc(N(CC2CC2)c2ccc(C(C)C)cc2Br)n1 (as salt: hydrochloride) [compound 33]
102 to 104 °C	–	CCN(c1nc(C)cc(CN2CCN(c3ccccc3OC)CC2)n1)c1ccc(C(C)C)cc1Br (as salt: HCl) [compound 275]
143 to 146 °C	–	CCN(c1nc(C)cc(OCCN(C)C)n1)c1ccc(C(C)C)cc1Br (as salt: hydrochloride) [compound 161]
117 to 119 °C	–	CCN(c1nc(C)cc(CN2CCN(c3ccccn3)CC2)n1)c1ccc(C(C)C)cc1Br (as salt: HCl) [compound 280]
208 to 211 °C	–	C=CCN(c1nc(C)cc(N2CCOCC2)n1)c1ccc(C(C)C)cc1Br (as salt: hydrochloride) [compound 17]
163 to 164 °C	–	Cc1cc(C)nc(N(C)c2ccc(C(C)C)cc2Br)n1 (as salt: hydrochloride) [compound 4, N-(2-bromo-4-(1-methylethyl)phenyl)-N-methyl-4,6-dimethyl-2-pymidinamine]
–	0.501 to 2 µM	CCN(c1nc(C)cc(NCCN(C)C)n1)c1ccc(C(C)C)cc1Br [compound 163]
105 to 107 °C	–	CCN(c1nc(C)cc(C(=O)c2c[nH]c3ccccc23)n1)c1ccc(C(C)C)cc1Br (as salt: HCl) [compound 283]
